The test system of this assay is TNF-α. Briefly: cytokine (TNF-α) levels in the colonic homogenate, TNBS-induced colitis model. The settings on record: at a pH value of 5.2; FIG. 2B. The class given is in vivo, C57B16j mice. The protocol:
Colitis was induced in C57B16j mice by 2,4,6-trinitrobenzene sulfonic acid (TNBS). TNBS induction was made at 0 and 4 days. BA 10^8/mL BA, EF 10^9/mL EF, and calciferol at […] was administered as oral gavage on alternative days from day 0 to day 14.
A comparative evaluation of cytokine (TNF-α) levels in the colonic homogenate of different mice groups from the TNBS-induced colitis model was performed. TNF-α was quantified after 14 days of the start of the experiment. All data were collected from three individual experiments and pooled and expressed as mean ±SD (p<0.05). The effect of BA and EF loads on the pro-inflammatory marker (TNF-α) in TNBS-induced colitis mice is illustrated in FIGS. 1A-1B (values are expressed in pg/mL).
Disease index and bleeding indicated degree of recovery of the disease in the group treated with the composition. […] TNF-α was quantified after 14 days of the experiment. The values are expressed in pg/mL. All data were collected from three individual experiments and pooled and expressed as mean ±SD (p<0.05). *p<0.05 represents significance.

Regarding `C=C1CC[C@H](O)C/C1=C/C=C1\CCC[C@]2(C)[C@@H]([C@H](C)/C=C/[C@H](C)C(C)C)CC[C@@H]12` [calciferol], the “most effective concentration of calciferol in the composition” value turned out to be 5 µM.

These data come from US11883442B1, “Composition for treating irritable bowel syndrome” (KING FAISAL UNIVERSITY, priority 2023, dated 2024).
